This is an account of results in PMC9170106, “Pre-clinical evaluation of LASSBio-1491: From in vitro pharmacokinetic study to in vivo leishmanicidal activity” (PLoS ONE, 2022).

The conditions of series [1]: GIT-PAMPA, ref literature, cited from earlier work; for Fa literature: absorbed fraction. On the technique in general: In PAMPA a lipid-coated filter parts donor from acceptor wells.
Series [2] has as its system L. major LV39. As to the kind of experiment: In vivo activity against Leishmania major LV39 substrain. Also on record: species or system BALB/c mice. Conditions: LASSBio-1491 10 μmol/Kg/day, glucantime 30 μmol/Kg/day x 28 days, i.p. Here is the method:
Thus, 6-week-old female BALB/c mice weighing approximately 20 g were used. […] Briefly, ketamine (80mg/kg) and xylazine (8 mg/kg) were simultaneously used to anesthetize the mice by intraperitoneal injection. The promastigotes of L. major LV39 substrain in the stationary phase, harvested after the third passage (obtained from parasites frozen), were inoculated subcutaneously at a concentration of 1x 10^5 parasites in the right ear of mice. […] The size of the lesions was measured using a pachymeter. Thiopental (150 mg/kg, i.p.) was used to euthanize the mice and the quantitative limiting-dilution assay was used to determine the parasite burden of infected ears and draining lymph nodes. The results obtained from experiments were expressed as the mean ± S.E.M. with the data analyzed (size of the lesions or parasite burden) by ANOVA and Dunnett hoc tests, considering a significance level of p < 0.05.

The nature of series [3]: PAMPA-GIT permeability. As to conditions: for Classification / Fa experimental: GIT-PAMPA; for Fa experimental: absorbed fraction. An excerpt: (§1) The parallel artificial membrane permeability assay uses 96-well plate in a “sandwich” type system, where one plate overlaps the other (PAMPA). […] The lipid mixture that impregnates the PVDF filter has a different constitution for the permeability tests for the blood-brain barrier (Brain lipid from pig extract in dodecane) and gastro-intestinal tract (L-α soy phosphatidylcholine in dodecane). In the PAMPA BBB and TGI assays, the optical density values obtained in the reading at each selected wavelength, for each of the compounds were analyzed in comparison with the values of several controls. In the case of the BBB, these values were used to elaborate an equation and determine the permeability coefficient (Pe), using a previously elaborated spreadsheet, and, for the TGI, these values were used to determine the absorbed fraction (Fa%), both using the Excel® program.

For series [4], the system named is L. major amastigote LV39 substrain. As to the kind of experiment: In vitro activity against intramacrophage amastigotes, LV39. As to conditions: Leishmania major. The series is classed as cell-based. Here is the method:
(§2) Briefly, female BALB/c mice (6 to 8 weeks old) received 1 mL sterile of 3% sodium thioglycolate by intraperitoneal route (i.p.) and were euthanized after 4 days. The intraperitoneal lavage was collected from the peritoneal cavity of mice using sterile PBS and cells were counted in a hemocytometer. Peritoneal adherent cells (macrophages) were plated at a concentration of 2 x 10^5 cells per well in 24-well culture plates containing glass coverslips. Subsequently, L. major promastigotes (harvested after the third passage) were added at a concentration of 2 x 10^6 parasites per well, aiming to infect the macrophages. […] After 24 hours in an incubator at 37 °C and 5% CO2, the coverslips were washed with PBS and stained with Giemsa-May Grünwald. The number of amastigotes in 100 macrophages was determined by counting using optical microscope (100x objective). Furthermore, the cell culture supernatant was also collected for nitrite measurement using the Griess reaction, an indirect way of determining the concentration of nitric oxide in the supernatant of infected macrophages from the experimental groups. The results obtained were expressed as the mean ± S.E.M. of the number of amastigotes or nitrite concentration from duplicate cultures of representative assays, with the data analyzed by ANOVA and Dunnett hoc tests, considering a significance level of p < 0.05. In addition, the linear regression analysis from the Kc values at employed concentrations was used to determine the IC50.

Series [5] has as its system L. major promastigote LV39 substrain. In words: In vitro activity against promastigotes, LV39. Format: cell-based. Conditions: Leishmania major. The procedure:
(§3) L. major promastigotes LV39 (MRHO/SU/59/P) were obtained from João […] Preto Medical School- USP. L. major IOC/[…] promastigotes (MHOM/SU/1973/5-ASKH) were obtained from Leishmania collection of the Oswaldo Cruz Institute-Fiocruz. L. major promastigotes LV39 (MRHO/SU/59/P) and L. major IOC/[…] (MHOM/SU/1973/5-ASKH) were grown in a Schneider's medium (Sigma-Aldrich, St. […] The determination of the leishmanicidal activity of LASSBio-1491 against L. major promastigotes was carried out according to the methodology described by […] and colleagues (1996). […] After 48h of incubation in a Biochemical Oxygen Demand (B.O.D.) incubator, the promastigotes were counted using a hemocytometer. The results obtained were expressed as the mean ± S.E.M. of the number of promastigotes from triplicate cultures of representative assays, with the data analyzed by ANOVA and Dunnett hoc tests, considering a significance level of p < 0.05.

Series [6] concerns peritoneal macrophages infected with L. major LV39. In words: Nitrite measurement (Griess reaction) in infected macrophages. As to conditions: BALB/c macrophages infected with L. major LV39. The series is classed as cell-based, BALB/c mice. Here is the method: as §2, with “In addition, the linear regression analysis from the Kc values at employed concentrations was used to determine the IC50.” left out
In general terms: Griess reagent forms a coloured azo dye with nitrite.

Series [7] concerns L. major promastigote 5-ASKH substrain. As to the kind of experiment: In vitro activity against promastigotes, 5-ASKH. As to conditions: Leishmania major. The series is classed as cell-based, Leishmania major. The procedure:
as §3

The subject of series [8] is spleen cells. In words: Cytotoxicity against spleen cells (propidium iodide). As to conditions: Mus musculus, 24 h. Here is the method: To carry out the suspension preparation of spleen cells, BALB/c mice were euthanized, and an incision was made to remove the spleen. The spleens were macerated using the end of the plungers from a 1 mL syringe in a 70 μm strainer placed in a Petri dish containing RPMI medium. […] After incubation for 4 min at room temperature, the cells were washed with RPMI medium. Subsequently, samples from three animals were pooled and the cell suspension was passed through a 40 μm strainer. Cells were counted in a Neubauer chamber and splenocytes were plated at a concentration of 5 x 10^5 cells per well in a 96-well culture plate. […] Moreover, spleen cells were also cultured just with medium (free of compounds or vehicle) or with DMSO 0.1%. […] After, the propidium iodide incorporation was performed according to the instructions of the Propidium Iodide Kit (Sigma, Copenhagen, Denmark). The splenocytes were analyzed in a FACS Canto II flow cytometer. The data files were saved using FACS Diva software and data analysis was done using Flow Jo software. […] Data obtained from experiments were expressed as the mean ± standard error of the mean (S.E.M.) of spleen died cells and statistical differences between the treated and the vehicle groups of experiments were evaluated by ANOVA and Dunnett hoc tests.

The test system of series [9] is L. major amasitigote 5-ASKH substrain. As to the kind of experiment: In vitro activity against intramacrophage amastigotes, 5-ASKH. Format: cell-based. As to conditions: Leishmania major. Here is the method:
as §2

A short description of series [10]: PAMPA-BBB permeability. As to conditions: for Classification: PAMPA-BBB.
Description: as §1

Take `O=C(O)c1cc(/N=N/c2ccc(S(=O)(=O)Nc3ccccn3)cc2)ccc1O` [Sulfasalazine]: in [1], the Fa literature was 42% and the Pe literature is recorded as 0.3 10^−6 cm s^-1.

As to “meglumine antimoniate [glucantime, reference compound]”, in series [2], the lesion size entry was “reduced lesion size only between days 7 and 17”; the “parasite load in draining lymph node” value is listed as “reduce the parasite load”; the “parasite load in infected ear” value is “reduce the parasite load”.

For the molecule `CO/N=C(\C(=O)N[C@@H]1C(=O)N2C(C(=O)O)=C(CSc3nc(=O)c(=O)[nH]n3C)CS[C@H]12)c1csc(N)n1` [Ceftriaxone], in [3], the Classification entry was “Low (low permeability (0–29%))” and the Fa experimental is listed as 1.37%. In [1], the Fa literature is listed as 1% and the Pe literature is 0.1 10^−6 cm s^-1.

Broadly, the IC50 is the point on the concentration scale where inhibition reaches its midpoint. `N=C(N)c1ccc(OCCCCCOc2ccc(C(=N)N)cc2)cc1` [Pentamidine, reference compound]: the half-inhibitory concentration (IC50) in [4] (Macrophage, amastigote LV39 in macrophages, 24 h) is 8.1 ± 0.9 µM; in series [5] (promastigote LV39, 48 h) it was 5.7 ± 0.2 µM; in series [7] (48 h) it was 0.8 ± 0.1 µM; in series [8] it was above 100 µM; in series [9] (Macrophage, amastigote 5-ASKH in macrophages, 24 h), 17.1 ± 5.6 µM. Besides, the Emax in series [4] (amastigote LV39, read-out: Maximum effect (% ± S.E.M.)) is 63.2 ± 2.9%; in series [5] (promastigote LV39, read-out: Maximum effect (% ± S.E.M.)) it was 88.1 ± 0.1%; in [7] (read-out: Maximum effect (% ± S.E.M.)) it was 72.6 ± 2%; in series [9] (amastigote 5-ASKH, read-out: Maximum effect (% ± S.E.M.)) it was 53.8 ± 1.1%. The “NO production (nitrite)” value in series [6] was “did not”.

What is called Papp is a coefficient for how fast a substance crosses the barrier. Read a high Papp as ready permeation. Regarding `Cn1c(=O)c2c(ncn2C)n(C)c1=O` [Caffeine, reference compound], in series [10] (PAMPA), the apparent permeability (Papp) was 0.81 ×10⁻⁶ cm/s. Also, the Classification entry in series [10] is on record as “CNS -”.

In the case of `CCn1cc(C(=O)O)c(=O)c2cc(F)c(N3CCNCC3)nc21` [Enoxacin, reference compound], the Classification result in series [10] is “CNS -”.

Consider `Nc1nc2c(ncn2COCCO)c(=O)[nH]1` [Acyclovir], for which, in series [3], the Classification result is given as “Low (low permeability (0–29%))” and the Fa experimental is 1.70%.

As for `CCn1cc(C(=O)O)c(=O)c2cc(F)c(N3CCNCC3)cc21` [Norfloxacin], the Papp in [3] (PAMPA) was 0.7 ×10⁻⁶ cm/s.

On to `CNC(=C[N+](=O)[O-])NCCSCc1ccc(CN(C)C)o1` [Ranitidine], for which, in series [3], the Classification entry is on record as “Medium (medium permeability (30–69%))” and the Fa experimental was found to be 38.29%.

For `O=C(O)Cc1ccccc1Nc1c(Cl)cccc1Cl` [Diclofenac], in series [3], the Classification result was “High (high intestinal permeability (70–100%))” and the Fa experimental is reported as 99.28%. Moreover, in series [1], the Fa literature was 100% and the Pe literature was 12.5 10^−6 cm s^-1.

In series [3], `CC(C)NCC(O)COc1ccc(CC(N)=O)cc1` (stereo not drawn) [Atenolol] gave a Fa experimental of 2.26%. Besides, the Fa literature in series [1] was 5.2%.
